Experimental findings from patent US11999746B2, “Compounds” (GlaxoSmithKline Intellectual Property Development Limited, priority 2014, dated 2024) are described below.

For assay [1], the target named is T1, recombinant human Lp-PLA2 (Homo sapiens, UniProt Q13093).
T1 sequence (Q13093 22-441): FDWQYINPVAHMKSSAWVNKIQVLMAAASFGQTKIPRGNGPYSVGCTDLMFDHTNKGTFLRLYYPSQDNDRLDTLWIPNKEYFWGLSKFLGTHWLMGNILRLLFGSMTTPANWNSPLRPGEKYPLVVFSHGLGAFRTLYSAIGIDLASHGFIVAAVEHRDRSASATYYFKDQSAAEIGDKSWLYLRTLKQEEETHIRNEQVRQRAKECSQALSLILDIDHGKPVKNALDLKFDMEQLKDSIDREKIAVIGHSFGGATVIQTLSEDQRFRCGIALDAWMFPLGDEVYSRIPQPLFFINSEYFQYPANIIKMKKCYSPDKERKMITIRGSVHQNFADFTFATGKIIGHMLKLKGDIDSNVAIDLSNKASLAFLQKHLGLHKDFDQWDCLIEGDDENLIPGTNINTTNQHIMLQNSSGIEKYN
Kind of assay: (1b) hrThioPAF assay, recombinant human Lp-PLA2. The class given is biochemical. The following applies: Examples 266-412 were tested here, one experiment or average of multiple experiments, read-out: rhLp-PLA2 (pIC50) (converted). The essentials: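 Fluorogenic assay: 20 pM rhLp-PLA2 in 50 mM HEPES pH 7.4, 150 mM NaCl, 1 mM CHAPS with 1:3 serially diluted compounds; substrate mix of 40 μM 2-thio-PAF, 40 μM CPM, 400 μM NEM (pre-addition levels). 20 min at 25 °C in the dark; fluorescence ex 380/em 485 nm, pIC50 by curve fitting.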

The next assay deals with T2, Lp-PLA2 in human plasma (Homo sapiens, UniProt Q13093).
T2 construct: from tissue; host or cells: pooled human plasma
T2 sequence (Q13093 22-441): T1 sequence (Q13093 22-441)
As to the kind of experiment: (3b) Lp-PLA2 human plasma alternative Thio-PAF assay. The class given is biochemical. The following applies: (3b) alternative Thio-PAF assay, pooled human plasma; Examples of 266-412 were tested here; read-out: pIC50 in the Lp-PLA2 human plasma assay (converted). The method, then:
(3b) Alternative Thio-PAF Assay
The human plasma assay utilizes the same thioester analog of PAF as described in (1b) “hr ThioPAF” assay. This assay may detect the activity of Lp-PLA2 in human plasma, as determined by specific inhibition by Lp-PLA2 inhibitors.
The thio-PAF assay was run as a quenched 20 μL assay. Compounds source plate was prepared by making 1:3 (by volume) serial dilution of the compounds into pure DMSO on 96-well microplate. 5 μL of compounds on compound source plate were transferred to 96-well Corning 3686 (black) low-volume plates by STAR+(Hamilton) liquid dispenser. 10 μL pooled human plasma, which was previously aliquoted and frozen, was added. Plates were centrifuged for 30 sec at 1000 rpm. After 15 minutes preincubation at room temperature, 5 μL of substrate solution comprising 2 mM 2-thio-PAF [from ethanol stock], 52 μM CPM [from a DMSO stock] and 2.5 mM NEM (N-ethylmaleimide) [made fresh daily in DMSO] in assay buffer (50 mM HEPES, pH 7.4, 150 mM NaCl, 1 mM CHAPS) was added to 96-well Corning 3686 (black) low-volume plates. After 3 mins, reaction was quenched with 10 μL of 5% aqueous trifluoroacetic acid (TFA). Plates were centrifuged 30 sec at 1000 rpm, covered to protect from light and incubated for 10 min at room temperature. Plates were read at ex: 380 nm/em: 485 nm using Envision plate reader (Perkin Elmer). Raw data were transferred to Excel software and pIC50 data, curve and QC analysis was conducted by using XL fit module in Excel.

Structures can show the parent of a compound that is named as a salt.

In the case of `O=c1nc(OCc2cc(F)c(Oc3ccnc(C(F)(F)F)c3)c(F)c2)cc2n1CC1CSCCN21` (stereo not shown) [Example E368, 7-((3,5-Difluoro-4-((2-(trifluoromethyl)pyridin-4-yl)oxy)benzyl)oxy) 3,4,11,11a-tetrahydropyrimido[6′,1′:2,3]imidazo[5,1-c][1,4]thiazin-9(1H)-one], the IC50 in assay [1] was not above 0.001 µM; at Lp-PLA2 in human plasma, not above 0.1 µM.

On to `N#Cc1cc(COc2cc3n(c(=O)n2)CC2CS(=O)(=O)CCN32)ccc1F` (stereo not shown) [Example E367, 5-(((2,2-Dioxido-9-oxo-1,3,4,9,11,11a-hexahydropyrimido[6′,1′:2,3]imidazo[5,1-c][1,4]thiazin-7-yl)oxy)methyl)-2-fluorobenzonitrile], for which the IC50 was not above 10 µM in assay [1] and not above 0.1 µM at Lp-PLA2 in human plasma.

Take `CS(=O)(=O)N1CCN2c3cc(OCc4ccc(F)c(F)c4)nc(=O)n3CC2C1` (stereo not shown) [Example E313, 7-((3,4-Difluorobenzyl)oxy)-2-(methylsulfonyl)-3,4,11,11a-tetrahydro-1H-pyrazino[1′,2′:3,4]imidazo[1,2-c]pyrimidin-9(2H)-one]: the IC50 (in assay [1]; at Lp-PLA2 in human plasma) was not above 0.1 µM throughout.

As to `CC(C)(N)CC(=O)N1CCN2c3cc(OCc4ccc(F)c(F)c4)nc(=O)n3CC2C1` (stereo not shown) [Example E334, 2-(3-Amino-3-methylbutanoyl)-7-((3,4-difluorobenzyl)oxy)-3,4,11,11a-tetrahydro-1H-pyrazino[1′,2′:3,4]imidazo[1,2-c]pyrimidin-9(2H)-one], the values for the IC50 (in assay [1]; at Lp-PLA2 in human plasma) were not above 10 µM and not above 0.1 µM, respectively.

For `Cc1ccc(Oc2c(F)cc(COc3cc4n(c(=O)n3)CC3(COC3)N4C)cc2C#N)cn1` [Example 399, 3-Fluoro-5-(((1-methyl-5-oxo-3,5-dihydro-1H-spiro[imidazo[1,2-c]pyrimidine-2,3′-oxetan]-7-yl)oxy)methyl)-2-((6-methylpyridin-3-yl)oxy)benzonitrile], the IC50 in assay [1] was not above 10 µM; on Lp-PLA2 in human plasma, not above 0.1 µM.

As to `O=c1nc(OCc2ccc(F)c(F)c2)cc2n1CC1CN(CC(F)(F)F)CCN21` (stereo not shown) [Example E338, 7-((3,4-Difluorobenzyl)oxy)-2-(2,2,2-trifluoroethyl)-3,4,11,11a-tetrahydro-1H pyrazino[1′,2′:3,4]imidazo[1,2-c]pyrimidin-9(2H)-one trifluoroacetate], the IC50 is 0.01 µM in assay [1] and not above 0.1 µM at Lp-PLA2 in human plasma.

`NC1(C(=O)N2CCN3c4cc(OCc5ccc(F)c(F)c5)nc(=O)n4CC3C2)CCCCC1` (stereo not shown) [Example E347, 2-(1-Aminocyclohexanecarbonyl)-7-((3,4-difluorobenzyl)oxy)-3,4,11,11a-tetrahydro-1H-pyrazino[1,2′:3,4]imidazo[1,2-c]pyrimidin-9(2H)-one]: the IC50 in assay [1] is not above 10 µM; at Lp-PLA2 in human plasma it was not above 0.1 µM.

Take `CC(=O)N1CCC2(CC1)Cn1c(cc(OCc3ccc(F)c(F)c3)nc1=O)N2C(C)=O` [Example 408, 1,1-(7-((3,4-difluorobenzyl)oxy)-5-oxo-1H-spiro[imidazo[1,2-c]pyrimidine-2,4′-piperidin]-1,1′(3H,5H)-diyl)diethanone]: the IC50 was not above 10 µM in assay [1] and not above 0.1 µM at Lp-PLA2 in human plasma.

In the case of `Cc1ccc(Oc2c(F)cc(COc3cc4n(c(=O)n3)CC3(CCOCC3)N4C)cc2F)cn1` [Example 405, 7-((3,5-Difluoro-4-((6-methylpyridin-3-yl)oxy)benzyl)oxy)-1-methyl-2′,3′,5′,6′-tetrahydro-1H-spiro[imidazo[1,2-c]pyrimidine-2,4′-pyran]-5(3H)-one], the IC50 (in assay [1]; on Lp-PLA2 in human plasma) was not above 0.1 µM in each case.

Take `N#Cc1cc(COc2cc3n(c(=O)n2)CC2CN(C(=O)CCN)CCN32)ccc1F` (stereo not shown) [Example E288, 5-(((2-(3-Aminopropanoyl)-9-oxo-2,3,4,9,11,11a-hexahydro-1H-pyrazino[1′,2′:3,4]imidazo[1,2-c]pyrimidin-7-yl)oxy)methyl)-2-fluorobenzonitrile]: the IC50 in assay [1] was not above 10 µM; at Lp-PLA2 in human plasma it was not above 0.1 µM.

Consider `Cc1ccc(Oc2c(F)cc(COc3cc4n(c(=O)n3)CC3CN(C)C(=O)CN43)cc2F)cn1` (stereo not shown) [Example E360, 7-((3,5-difluoro-4-((6-methylpyridin-3-yl)oxy)benzyl)oxy)-2-methyl-11,11a-dihydro-1H-pyrazino[1′,2′:3,4]imidazo[1,2-c]pyrimidine-3,9(2H,4H)-dione, trifluoroacetic acid salt], for which the IC50 in assay [1] was not above 10 µM; at Lp-PLA2 in human plasma it was not above 0.1 µM.

As to `CN(C)CC(=O)N1CCN2c3cc(OCc4ccc(F)c(F)c4)nc(=O)n3CC2C1` (stereo not shown) [Example E346, 7-((3,4-Difluorobenzyl)oxy)-2-(2-(dimethylamino)acetyl)-3,4,11,11a-tetrahydro-1H-pyrazino[1,2′:3,4]imidazo[1,2-c]pyrimidin-9(2H)-one], the IC50 is not above 10 µM in assay [1] and not above 0.1 µM on Lp-PLA2 in human plasma.

Take `CC(C)(N)C(=O)N1CCN2c3cc(OCc4ccc(F)c(F)c4)nc(=O)n3CC2C1` (stereo not shown) [Example E335, 2-(2-Amino-2-methylpropanoyl)-7-((3,4-difluorobenzyl)oxy)-3,4,11,11a-tetrahydro-1H-pyrazino[1,2′:3,4]imidazo[1,2-c]pyrimidin-9(2H)-one]: the IC50 is not above 10 µM in assay [1] and not above 0.1 µM at Lp-PLA2 in human plasma.

For `O=c1nc(OCc2ccc(F)c(F)c2)cc2n1CC1CN(S(=O)(=O)C3CC3)CCN21` (stereo not shown) [Example E331, 2-(Cyclopropylsulfonyl)-7-((3,4-difluorobenzyl)oxy)-3,4,11,11a-tetrahydro-1H-pyrazino[1′,2′:3,4]imidazo[1,2-c]pyrimidin-9(2H)-one], the IC50 in assay [1] was not above 10 µM; at Lp-PLA2 in human plasma it was not above 0.1 µM.

For `CC(=O)N1CCN2c3cc(OCc4ccc(F)c(C#N)c4)nc(=O)n3CC2C1` (stereo not shown) [Example E281, 5-(((2-Acetyl-9-oxo-2,3,4,9,11,11a-hexahydro-1H-pyrazino[1′,2′:3,4]imidazo[1,2-c]pyrimidin-7-yl)oxy)methyl)-2-fluorobenzonitrile, trifluoroacetic Acid Salt], the IC50 in assay [1] is not above 10 µM; on Lp-PLA2 in human plasma, not above 0.1 µM.

On to `O=c1nc(OCc2cc(F)c(Oc3cncc(C(F)(F)F)c3)c(F)c2)cc2n1CC1CNCCN21` (stereo not shown) [Example E273, 7-((3,5-Difluoro-4-((5-(trifluoromethyl)pyridin-3-yl)oxy)benzyl)oxy)-3,4,11,11a-tetrahydro-1H-pyrazino[1′,2′:3,4] imidazo [1,2-c]pyrimidin-9(2H)-one], for which the IC50 in assay [1] was not above 0.001 µM; at Lp-PLA2 in human plasma, not above 0.1 µM.

On to `CCN1CCN2c3cc(OCc4ccc(F)c(C#N)c4)nc(=O)n3CC2C1` (stereo not shown) [Example E280, 5-(((2-Ethyl-9-oxo-2,3,4,9,11,11a-hexahydro-1H-pyrazino[1′,2′:3,4]imidazo[1,2-c]pyrimidin-7-yl)oxy)methyl)-2-fluorobenzonitrile], for which the IC50 is not above 10 µM in assay [1] and not above 0.1 µM at Lp-PLA2 in human plasma.

In the case of `CC(C)C(=O)N1CCN2c3cc(OCc4ccc(F)c(F)c4)nc(=O)n3CC2C1` (stereo not shown) [Example E310, 7-((3,4-Difluorobenzyl)oxy)-2-isobutyryl-3,4,11,11a-tetrahydro-1Hpyrazino[1′,2′:3,4] imidazo[1,2-c]pyrimidin-9(2H)-one], the IC50 (in assay [1]; at Lp-PLA2 in human plasma) was not above 0.1 µM throughout.

For `O=c1nc(OCc2ccc(F)c(F)c2)cc2n1CC1(COC1)N2` [Example E396, 7-((3,4-difluorobenzyl)oxy)-1H-spiro[imidazo[1,2-c]pyrimidine-2,3′-oxetan]-5(3H)-one], the IC50 was not above 10 µM in assay [1] and not above 0.1 µM at Lp-PLA2 in human plasma.

Regarding `O=c1nc(OCc2ccc(Oc3ccnc(C(F)(F)F)c3)c(F)c2)cc2n1CC1CNCCN21` (stereo not shown) [Example E267, 7-((3-Fluoro-4-((2-(trifluoromethyl)pyridin-4-yl)oxy)benzyl)oxy)-3,4,11,11a-tetrahydro-1H-pyrazino[1′,2′:3,4] imidazo [1,2-c]pyrimidin-9(2H)-one], the IC50 (in assay [1]; on Lp-PLA2 in human plasma) was not above 0.1 µM each time.
